57 molecules from ChEMBL document CHEMBL1137901, “Biaryl guanidine inhibitors of in vitro HCV-IRES activity” (Bioorg Med Chem Lett, 2004) can be followed below.

SMILES strings stand for the structures. Bounds are passed on as bounds.

The subject of assay [1] is Hepatitis C virus. As to the kind of experiment: In vitro inhibitory concentration against hepatitis C virus internal ribosome entry site (HCV-IRES) translation. The format is functional, Hepacivirus hominis.
The test system of assay [2] is Hepatitis C virus. The assay can be described thus: Selectivity was determined as the ratio of IC50 of non-IRES to that of IC50 of HCV-IRES. Type of assay: functional, Hepacivirus hominis.
Assay [3] can be described thus: In vitro inhibitory concentration against non internal ribosome entry site translation. The format is functional.

As a reminder, the IC50 is the concentration at which inhibition is half-maximal. Read a high IC50 as lower potency. `Cc1cc(C)nc(/N=C(\N)NCCc2ccc(F)cc2)n1` gave an IC50 in the assay on Hepatitis C virus [1] of 23 µM. The Selectivity with Hepatitis C virus [2] is on record as 4.1.
On to `COc1cc(CC/N=C(\N)Nc2nc(C)cc(C)n2)cc(OC)c1`, for which the IC50 in the assay on Hepatitis C virus [1] turned out to be 26 µM. Moreover, in the assay on Hepatitis C virus [2], the Selectivity is listed as more than 7.7.
`Cc1cc(C)nc(/N=C(\N)NCc2nc3ccccc3[nH]2)n1`: the 50% inhibitory concentration (IC50) in the assay on Hepatitis C virus [1] stood at 23 µM. In addition, the Selectivity in the assay on Hepatitis C virus [2] turned out to be 1.7.
In the assay with Hepatitis C virus [1], `Cc1cc(C)nc(/N=C(\N)NCCc2ccc(O)cc2)n1` came in with an IC50 of 49 µM. The Selectivity in the assay on Hepatitis C virus [2] is 3.
For `Cc1cc(C)nc(N/C(N)=N/CCc2ccc(C(C)C)cc2)n1` the same measures were 104 µM and more than 1.9.
With `Cc1cc(C)nc(/N=C(\N)NCCc2ccc(C(C)(C)C)cc2)n1`, the half-maximal inhibitory concentration (IC50) (in the assay with Hepatitis C virus [1]; in assay [3]) was more than 200 µM in each case.
With `Cc1cc(C)nc(N/C(N)=N/C[C@H](C)c2ccccc2)n1`, in the assay with Hepatitis C virus [1], the IC50 came out at 35 µM. Further, the Selectivity in the assay on Hepatitis C virus [2] was 5.7.
For `CCOc1ccc(CC/N=C(\N)Nc2nc(C)cc(C)n2)cc1` the same measures were 82 µM and more than 2.4.
On to `Cc1cc(C)nc(NC(=N)N(C)CCc2ccccc2)n1`, for which the half-inhibitory concentration (IC50) (in the assay with Hepatitis C virus [1]; in assay [3]) was more than 200 µM each time.
Turning to `Cc1cc(C)nc(/N=C(\N)NCc2cc3ccccc3o2)n1`, in the assay on Hepatitis C virus [1], the IC50 came to 25 µM. In the assay on Hepatitis C virus [2], the Selectivity is 2.8.
In the same order, the values of `Cc1cc(C)nc(/N=C(\N)NCCc2cccnc2)n1` are 32 µM and 4.
In the same order, the values of `Cc1nc(/N=C(\N)NCCc2ccccc2)nc(C)c1Br` are 8.1 µM and 2.2.
Consider `Cc1cc(C)nc(/N=C(\N)NCCc2ccccc2Cl)n1`, for which the half-maximal inhibitory concentration (IC50) with Hepatitis C virus [1] was found to be 16 µM. Also, the Selectivity in the assay with Hepatitis C virus [2] came to 1.8.
Consider `Cc1nc(/N=C(\N)NCCc2ccccc2)nc(C)c1C`, for which the IC50 with Hepatitis C virus [1] is 4.2 µM. The Selectivity in the assay with Hepatitis C virus [2] amounted to 1.3.
In the same order, the values of `Cc1cc(C)nc(/N=C(\N)NCCc2ccccn2)n1` are 39 µM and 2.4.
For the molecule `Cc1cc(C)nc(/N=C(\N)NCc2cccs2)n1`, the 50% inhibitory concentration (IC50) with Hepatitis C virus [1] worked out at 38 µM. Moreover, the Selectivity in the assay with Hepatitis C virus [2] is given as 1.3.
As to `Cc1cc(C)nc(/N=C(\N)NCCc2ccccc2)n1`, the IC50 in the assay with Hepatitis C virus [1] was found to be 9.6 µM. In addition, the Selectivity in the assay on Hepatitis C virus [2] amounted to 2.4.
In the assay with Hepatitis C virus [1], `Cc1cc(C)nc(/N=C(\N)NC[C@@H](O)c2ccccc2)n1` displayed a 50% inhibitory concentration (IC50) of 9.7 µM. For the same molecule, the Selectivity with Hepatitis C virus [2] is more than 2.2.
For the molecule `Cc1nc(/N=C(\N)NCCc2ccccc2)nc(C)c1OCCCN(C)C`, it took 2.1 µM to reach half-maximal inhibition in the assay with Hepatitis C virus [1] (IC50). The Selectivity with Hepatitis C virus [2] is reported as 2.
For `COc1ccc(CC/N=C(\N)Nc2nc(C)cc(C)n2)c(OC)c1` the same measures were 68 µM and 2.6.
On to `Cc1cccc(CC/N=C(\N)Nc2nc(C)cc(C)n2)c1`, for which the IC50 in the assay on Hepatitis C virus [1] came to 23 µM. The Selectivity in the assay with Hepatitis C virus [2] worked out at 2.8.
For `Cc1cc(C)nc(/N=C(\N)NCCc2ccccc2C)n1` the same measures were 15 µM and 1.8.
Turning to `Cc1cc(C)nc(NC(=O)NCCc2ccccc2)n1`, the IC50 (in the assay with Hepatitis C virus [1]; in assay [3]) was more than 200 µM throughout.
`Cc1ccc(C)c(CC/N=C(\N)Nc2nc(C)cc(C)n2)c1`: the concentration for half-maximal inhibition (IC50) in the assay on Hepatitis C virus [1] is 35 µM. Moreover, the Selectivity in the assay with Hepatitis C virus [2] is given as 5.7.
In the same order, the values of `Cc1cc(C)nc(/N=C(\N)NCCc2ccc(Br)cc2)n1` are 50 µM and 2.5.
For `Cc1ccc(CC/N=C(\N)Nc2nc(C)cc(C)n2)c(C)c1` the same measures were 23 µM and 3.3.
In the assay with Hepatitis C virus [1], `Cc1ccnc(/N=C(\N)NCCc2ccccc2)n1` returned an IC50 of 46 µM. Moreover, the Selectivity in the assay on Hepatitis C virus [2] is listed as 3.5.
`COc1cc(OC)nc(/N=C(\N)NCCc2ccccc2)n1`: in the assay with Hepatitis C virus [1], inhibition was half-maximal at 35 µM (IC50). Further, the Selectivity in the assay with Hepatitis C virus [2] stood at 5.
As for `Cc1cc(C)nc(/N=C(\N)NCCc2ccc3ccccc3n2)n1`, half-maximal inhibition with Hepatitis C virus [1] (IC50) required 23 µM. In the assay with Hepatitis C virus [2], the Selectivity is on record as 3.7.
For the molecule `Cc1cc(C)cc(NC(=N)NCCc2ccccc2)c1`, the IC50 (in the assay on Hepatitis C virus [1]; in assay [3]) was more than 200 µM in each case.
`Cc1cc(C)nc(/N=C(\N)NCCc2ccc(-c3ccccc3)cc2)n1` came in with a 50% inhibitory concentration (IC50) in the assay on Hepatitis C virus [1] of 80 µM. The Selectivity in the assay with Hepatitis C virus [2] is reported as more than 2.5.
Turning to `Cc1cc(C)nc(/N=C(\N)NCCc2ccc(C(F)(F)F)cc2)n1`, the half-maximal inhibitory concentration (IC50) in the assay on Hepatitis C virus [1] was 82 µM. Moreover, in the assay with Hepatitis C virus [2], the Selectivity stood at 2.2.
For `Cc1cc(C)nc(/N=C(\N)NCCCc2ccccc2)n1` the same measures were 150 µM and 1.3.
In the same order, the values of `COc1ccc(CCNC(=N)Nc2nc(C)cc(C)n2)cc1` are 25 µM and 4.1.
Regarding `Cc1cc(C)nc(N(C)C(=N)NCCc2ccccc2)n1`, the IC50 (in the assay with Hepatitis C virus [1]; in assay [3]) was more than 200 µM in each case.
The molecule `Cc1cc(C)nc(/N=C(\N)NCc2ccccc2)n1` yielded a half-maximal inhibitory concentration (IC50) with Hepatitis C virus [1] of 7.6 µM. For the same molecule, the Selectivity in the assay on Hepatitis C virus [2] worked out at 2.6.
In the same order, the values of `Cc1cc(C)nc(/N=C(\N)NCCc2ccncc2)n1` are 55 µM and more than 3.6.
In the same order, the values of `COc1ccccc1CC/N=C(\N)Nc1nc(C)cc(C)n1` are 13 µM and 1.8.
For `COc1ccc(OC)c(CC/N=C(\N)Nc2nc(C)cc(C)n2)c1` the same measures were 94 µM and more than 2.1.
With `Cc1cc(C)nc(/N=C(\N)NCCc2ccc(C(=O)O)cc2)n1`, the IC50 (in the assay with Hepatitis C virus [1]; in assay [3]) was more than 200 µM each time.
Consider `Cc1cc(C)nc(/N=C(\N)NC[C@H](O)c2ccccc2)n1`, for which, in the assay on Hepatitis C virus [1], the 50% inhibitory concentration (IC50) amounted to 75 µM. For the same molecule, the Selectivity in the assay with Hepatitis C virus [2] is on record as more than 2.7.
In the same order, the values of `Cc1cc(C)nc(/N=C(\N)NCc2ccco2)n1` are 97 µM and more than 2.
Take `Cc1cc(C)nc(N/C(N)=N/C[C@@H](C)c2ccccc2)n1`: half-maximal inhibition in the assay with Hepatitis C virus [1] (IC50) required 21 µM. Besides, the Selectivity in the assay on Hepatitis C virus [2] worked out at 1.9.
For `Cc1cc(C)nc(/N=C(\N)NCCc2ccc(N)cc2)n1` the same measures were 61 µM and 2.5.
As for `Cc1cc(C)nc(NC(=N)NCCc2ccccc2)c1`, the 50% inhibitory concentration (IC50) (in the assay on Hepatitis C virus [1]; in assay [3]) was more than 200 µM in each case.
For the molecule `COC(=O)c1ccc(CC/N=C(\N)Nc2nc(C)cc(C)n2)cc1`, the midpoint of inhibition in the assay with Hepatitis C virus [1], the IC50, lay at 29 µM. Further, the Selectivity in the assay on Hepatitis C virus [2] was found to be 3.4.
On to `Cc1cc(C)nc(/N=C(\S)NCCc2ccccc2)n1`, for which the half-maximal inhibitory concentration (IC50) (with Hepatitis C virus [1]; in assay [3]) was more than 200 µM in each case.
`Cc1cc(C)nc(/N=C(\N)NCCc2ccc(Cl)cc2)n1` came in with an IC50 in the assay on Hepatitis C virus [1] of 24 µM. Moreover, the Selectivity in the assay on Hepatitis C virus [2] is 2.3.
For `Cc1cc(C)nc(/N=C(\N)NCCc2ccc([N+](=O)[O-])cc2)n1` the same measures were 54 µM and 1.5.
In the same order, the values of `Cc1ccc(CC/N=C(\N)Nc2nc(C)cc(C)n2)cc1` are 34 µM and 3.8.
For `Cc1cc(C)nc(/N=C(\N)NCCc2ccc(OC(F)(F)F)cc2)n1`, in the assay with Hepatitis C virus [1], inhibition was half-maximal at 92 µM (IC50). Also, the Selectivity with Hepatitis C virus [2] is on record as more than 2.2.
In the same order, the values of `COc1c(C)nc(/N=C(\N)NCCc2ccccc2)nc1C` are 9.9 µM and 3.4.
In the same order, the values of `CCc1cc(CC)nc(/N=C(\N)NCCc2ccccc2)n1` are 13 µM and 2.2.
In the assay on Hepatitis C virus [1], `COc1cc(OC)c(CC/N=C(\N)Nc2nc(C)cc(C)n2)c(OC)c1` gave an IC50 of 100 µM. Further, the Selectivity in the assay on Hepatitis C virus [2] was more than 2.
For `Cc1cc(C)nc(/N=C(\N)NCC(c2ccccc2)c2ccccc2)n1` the same measures were 75 µM and more than 2.7.
For `Cc1cc(C)nc(/N=C(\N)NCCc2cccc(Cl)c2)n1` the same measures were 12 µM and 1.8.
For `Cc1nc(/N=C(\N)NCCc2ccccc2)nc(C)c1O` the same measures were 19 µM and 3.6.
